Structures can show the parent of a compound that is named as a salt.
Test system: LP-1 cell line
Experiment: Cell-based pERK ELISA method, LP-1 cells
Details: Homo sapiens, LP-1, read-out: IC50 less than 1 μM or at least 50% inhibition at a concentration of 1 μM, LP-1 pERK ELISA
Experimental: LP-1 or JIM-1 multiple myeloma cells were seeded in 96 well plates at 1×10^6 cells/ml in 200 ul per well in serum free media. […] Cells were incubated for 16 h at 37° C. prior to the addition of a test compound for 30 minutes. Test compounds were administered at a 0.1% final DMSO concentration. […] ELISA plates and standards were prepared according o the standard DuoSet protocols and the relative amounts of pERK to total ERK in each sample calculated according to the standard curve.
In particular, compounds of the invention were tested against the LP-1 cell line (DSMZ no.: ACC 41) derived from human multiple myeloma.

| Structure (SMILES) | IC50 [µM] |
| --- | --- |
| CN(C)S(=O)(=O)n1cc(-c2ccn3c(-c4cccc(NC(=O)NCC(F)(F)F)c4)cnc3c2)cn1 [Example 262, 4-(3-{3-[3-(2,2,2-Trifluoro-ethyl)-ureido]-phenyl}-imidazo[1,2-a]pyridin-7-yl)-pyrazole-1-sulfonic acid dimethylamide] | < 1 |
| COCCNC(=O)c1cccc(-c2ccn3c(-c4cccc(NC(=O)NCC(F)(F)F)c4)cnc3c2)c1 [Example 263, N-(2-Methoxy-ethyl)-3-(3-{3-[3-(2,2,2-trifluoro-ethyl)-ureido]-phenyl}-imidazo[1,2-a]pyridin-7-yl)-benzamide] | < 1 |
| O=C(NCC(F)(F)F)Nc1cccc(-c2cnc3cc(-c4cccc(C(=O)N5CCC5)c4)ccn23)c1 [Example 264, 1-(3-{7-[3- (Azetidine 1-carbonyl)-phenyl]-imidazo[1,2-a]pyridin-3-yl}-phenyl)-3-(2,2,2-trifluoro-ethyl)-urea] | < 1 |
| CCNC(=O)Nc1cc(-c2cnc3cc(-c4ccc(F)cc4)ccn23)ccc1F [Example 266, 1-Ethyl-3-{2-fluoro-5-[7-(4-fluoro-phenyl)-imidazo[1,2-a]pyridin-3-yl]-phenyl}-urea] | < 1 |
| CC(C)NC(=O)c1cccc(-c2ccn3c(-c4cccc(NC(=O)NCC(F)(F)F)c4)cnc3c2)c1 [Example 267, N-Isopropyl-3-(3-{3-[3-(2,2,2-trifluoro-ethyl)-ureido]-phenyl}-imidazo[1,2-a]pyridin-7-yl)-benzamide] | < 1 |
| O=C(NCC(F)(F)F)Nc1cccc(-c2cnc3cc(-c4ccc(F)cc4F)ccn23)c1 [Example 269, 1-{3-[7-(2,4-Difluoro-phenyl)-imidazo[1,2-a]pyridin-3-yl]-phenyl}-3-(2,2,2-trifluoro-ethyl)-urea] | < 1 |
| Cc1ccc(-c2ccn3c(-c4cccc(NC(=O)NCC(F)(F)F)c4)cnc3c2)s1 [Example 270, 1-{3-[7-(5-Methyl-thiophen-2-yl)-imidazo[1,2-a]pyridin-3-yl]-phenyl}-3-(2,2,2-trifluoro-ethyl)-urea formate] | < 1 |
| COc1ccc(-c2ccn3c(-c4cccc(NC(=O)NCC(F)(F)F)c4)cnc3c2)cc1 [Example 271, 1-{3-[7-(4-Methoxy-phenyl)-imidazo[1,2-a]pyridin-3-yl]-phenyl}-3-(2,2,2-trifluoro-ethyl)-urea] | < 1 |
| O=C(NCC(F)(F)F)Nc1cccc(-c2cnc3cc(-c4ccc(Cl)cc4)ccn23)c1 [Example 273, 1-{3-[7-(4-Chloro-phenyl)-imidazo[1,2-a]pyridin-3-yl]-phenyl}-3-(2,2,2-trifluoro-ethyl)-urea] | < 1 |
| O=C(NCC(F)(F)F)Nc1cccc(-c2cnc3cc(-c4cccc(Cl)c4)ccn23)c1 [Example 278] | < 1 |
| COc1cccc(-c2ccn3c(-c4cccc(NC(=O)NCC(F)(F)F)c4)cnc3c2)c1 [Example 279, 1-{3-[7-(3-Methoxy-phenyl)-imidazo[1,2-a]pyridin-3-yl]-phenyl}-3-(2,2,2-trifluoro-ethyl)-urea] | < 1 |
| O=C(NCC(F)(F)F)Nc1cccc(-c2cnc3cc(-c4ccc(Cl)c(F)c4)ccn23)c1 [Example 280, 1-{3-[7-(4-Chloro-3-fluoro-phenyl)-imidazo[1,2-a]pyridin-3-yl]-phenyl}-3-(2,2,2-trifluoro-ethyl)-urea] | < 1 |
| O=C(NCC(F)(F)F)Nc1cccc(-c2cnc3cc(-c4cccc(C(=O)N5CCCNCC5)c4)ccn23)c1 [Example 283, 1-(3-{7-[3-([1,4] Diazepane-1-carbonyl)-phenyl]-imidazo[1,2-a]pyridin-3-yl}-phenyl)-3-(2,2,2-trifluoro-ethyl)-urea Hydrochloride] | < 1 |
| O=C(NCC(F)(F)F)Nc1cccc(-c2cnc3cc(-c4ccc(F)c(Cl)c4)ccn23)c1 [Example 284, 1-{3-[7-(3-Chloro-4-fluoro-phenyl)-imidazo[1,2-a]pyridin-3-yl]-phenyl}-3-(2,2,2-trifluoro-ethyl)-urea] | < 1 |
| O=C(NCC(F)(F)F)Nc1cccc(-c2cnc3cc(-c4ccc(C5CNCCN5)cc4)ccn23)c1 (stereo not drawn) [Example 296, 1-{3-[7-(4-Piperazin-2-yl-phenyl)-imidazo[1,2-a]pyridin-3-yl]-phenyl}-3-(2,2,2-trifluoro-ethyl)-urea hydrochloride] | < 1 |

Next, values leading:

| IC50 [µM] | Structure (SMILES) |
| --- | --- |
| < 1 | O=C(NCC(F)(F)F)Nc1cccc(-c2cnc3cc(-c4nnco4)ccn23)c1 [Example 330, 1-[3-(7-[1,3,4]Oxadiazol-2-yl-imidazo[1,2-a]pyridin-3-yl)-phenyl]-3-(2,2,2-trifluoro-ethyl)-urea] |
| < 1 | Cn1c(-c2ccn3c(-c4cccc(NC(=O)NCC(F)(F)F)c4)cnc3c2)n[nH]c1=S [Example 332, 1-{3-[7-(4-Methyl-5-thioxo-4,5-dihydro-1H-[1,2,4]triazol-3-yl)-imidazo[1,2-a]pyridin-3-yl]-phenyl}-3-(2,2,2-trifluoro-ethyl)-urea] |
| < 1 | O=C(NCC(F)(F)F)Nc1cccc(-c2cnc3cc(C4CC4)ccn23)c1 [Example 334, 1-[3-(7-Cyclopropyl-imidazo[1,2-a]pyridin-3-yl)-phenyl]-3-(2,2,2-trifluoro-ethyl)-urea Formate] |
| < 1 | COc1ccn2c(-c3cccc(NC(=O)NCC(F)(F)F)c3)cnc2c1 [Example 336, 1-[3-(7-Methoxy-imidazo[1,2-a]pyridin-3-yl)-phenyl]-3-(2,2,2-trifluoro-ethyl)-urea Formate] |
| < 1 | CCOc1ccn2c(-c3cccc(NC(=O)NCC(F)(F)F)c3)cnc2c1 [Example 337, 1-[3-(7-Ethoxy-imidazo[1,2-a]pyridin-3-yl)-phenyl]-3-(2,2,2-trifluoro-ethyl)-urea Formate] |
| < 1 | N#Cc1ccn2c(-c3cccc(NC(=O)NCC(F)(F)F)c3)cnc2c1 [Example 341, 1-[3-(7-Cyano-imidazo[1,2-a]pyridin-3-yl)-phenyl]-3-(2,2,2-trifluoro-ethyl)-urea] |
| < 1 | CNC(=O)/C=C/c1ccn2c(-c3cccc(NC(=O)NCC(F)(F)F)c3)cnc2c1 [Example 344, (E)-N-Methyl-3-(3-{3-[3-(2,2,2-trifluoro-ethyl)-ureido]-phenyl}-imidazo[1,2-a]pyridin-7-yl)-acrylamide] |
| < 1 | CN(C)C(=O)/C=C/c1ccn2c(-c3cccc(NC(=O)NCC(F)(F)F)c3)cnc2c1 [Example 345, (E)-N,N-Dimethyl-3-(3-{3-[3-(2,2,2-trifluoro-ethyl)-ureido]-phenyl}-imidazo[1,2-a]pyridin-7-yl)-acrylamide] |
| < 1 | Cc1cc2ncc(-c3cccc(NC(=O)NCC(F)(F)F)c3)n2cc1Cl [Example 346, 1-[3-(6-Chloro-7-methyl-imidazo[1,2-a]pyridin-3-yl)-phenyl]-3-(2,2,2-trifluoro-ethyl)-urea] |
| < 1 | Cc1nc(-c2ccn3c(-c4cccc(NC(=O)NCC(F)(F)F)c4)cnc3c2)cs1 [Example 348, 1-{3-[7-(2-Methyl-thiazol-4-yl)-imidazo[1,2-a]pyridin-3-yl]-phenyl}-3-(2,2,2-trifluoro-ethyl)-urea] |
| < 1 | Cn1cc(-c2cnc3c(-c4cncc(NC(=O)NCC(F)(F)F)c4)cnn3c2)cn1 [Example 349, 1-{5-[6-(1-Methyl-1H-pyrazol-4-yl)-pyrazolo[1,5-a]pyrimidin-3-yl]-pyridin-3-yl}-3-(2,2,2-trifluoro-ethyl)-urea] |
| < 1 | CC(C)(O)c1ccc(-c2ccn3c(-c4cccc(NC(=O)NCC(F)(F)F)c4)cnc3c2)cn1 [Example 351, 1-(3-{7-[6-(1-Hydroxy-1-methyl-ethyl)-pyridin-3-yl]-imidazo[1,2-a]pyridin-3-yl}-phenyl)-3-(2,2,2-trifluoro-ethyl)-urea] |

Same assay, conditions: Homo sapiens, LP-1, read-out: LP-1 pERK ELISA (μM)

| Structure (SMILES) | IC50 [µM] |
| --- | --- |
| Cc1nnc(-c2ccn3c(-c4cccc(NC(=O)NCC(F)(F)F)c4)cnc3c2)s1 [Example 310, 1-{3-[7-(5-Methyl-[1,3,4]-thiadiazol-2-yl)-imidazo[1,2-a]pyridin-3-yl]-phenyl}-3-(2,2,2-trifluoro-ethyl)-urea] | 0.0042 |
| Cc1nnc(-c2ccn3c(-c4cccc(NC(=O)NCC(F)(F)F)c4)cnc3c2)o1 [Example 329, 1-{3-[7-(5-Methyl-[1,3,4]oxadiazol-2-yl)-imidazo[1,2-a]pyridin-3-yl]-phenyl}-3-(2,2,2-trifluoro-ethyl)-urea] | 0.143 |
| Cc1c(-c2ccn3c(-c4cccc(NC(=O)NCC(F)(F)F)c4)cnc3c2)nnn1C [Example 378, 1-{3-[7-(1,5-Dimethyl-1H-[1,2,3]triazol-4-yl)-imidazo[1,2-a]pyridin-3-yl]-phenyl}-3-(2,2,2-trifluoro-ethyl)-urea formate] | 0.016 |

Further lines, results first:

| IC50 [µM] | Structure (SMILES) |
| --- | --- |
| 0.0157 | CSc1nnc(-c2ccn3c(-c4cccc(NC(=O)NCC(F)(F)F)c4)cnc3c2)o1 [Example 354, 1-{3-[7-(5-Methylsulfanyl-[1,3,4]oxadiazol-2-yl)-imidazo[1,2-a]pyridin-3-yl]-phenyl}-3-(2,2,2-trifluoro-ethyl)-urea] |
| 0.033 | Cn1nnc(-c2ccn3c(-c4cccc(NC(=O)NCC(F)(F)F)c4)cnc3c2)n1 [Example 359, 1-{3-[7-(2-Methyl-2H-tetrazol-5-yl)-imidazo[1,2-a]pyridin-3-yl]-phenyl}-3-(2,2,2-trifluoro-ethyl)-urea] |
| 0.022 | Cn1cnc(-c2ccn3c(-c4cccc(NC(=O)NCC(F)(F)F)c4)cnc3c2)c1 [Example 375, 1-{3-[7-(1-Methyl-1H-imidazol-4-yl)-imidazo[1,2-a]pyridin-3-yl]-phenyl}-3-(2,2,2-trifluoro-ethyl)-urea] |
| 0.019 | O=C(NCC(F)(F)F)Nc1cccc(-c2cnc3cc(-c4nncs4)ccn23)c1 [Example 384, 1-[3-(7-[1,3,4]Thiadiazol-2-yl-imidazo[1,2-a]pyridin-3-yl)-phenyl]-3-(2,2,2-trifluoro-ethyl)-urea] |
| 0.065 | CC#Cc1ccn2c(-c3cccc(NC(=O)NCC(F)(F)F)c3)cnc2c1 [Example 396, 1-[3-(7-Prop-1-ynyl-imidazo[1,2-a]pyridin-3-yl)-phenyl]-3-(2,2,2-trifluoro-ethyl)-urea] |
| 0.022 | Cc1nsc(-c2ccn3c(-c4cccc(NC(=O)NCC(F)(F)F)c4)cnc3c2)n1 [Example 399, 1-{3-[7-(3-Methyl-[1,2,4]thiadiazol-5-yl)-imidazo[1,2-a]pyridin-3-yl]-phenyl}-3-(2,2,2-trifluoro-ethyl)-urea] |

Source: US8895745B2, “Bicyclic heterocyclic compounds as FGFR inhibitors” (Astex Therapeutics Limited, priority 2006, dated 2014)
